Test results reported in US20110124701A1, “USE OF HDAC INHIBITORS FOR THE TREATMENT OF LYMPHOMAS” (NOVARTIS AG, priority 2006, published 2011).

Columns and labels:
[1] = tested on: HuT78 CTCL cell line; test: Monolayer growth inhibition assay (MTT/MTS), HuT78; format: cell-based
Method: (§1) The antibiotics penicillin 100 units/mL) and streptomycin (100 μg/mL) were added to prevent bacterial contamination and maintained at 37° C. and 5% CO2 environment in a sterile incubator.
(§2) The MTT is a colorimetric assay to determine the cell proliferation rate. The yellow tetrazolium MTT (3-(4,5-dimethylthiazolyl-2)-2,5-diphenyltetrazolium bromide) is reduced by metabolically active cells, in part by the action of dehydrogenase enzymes, to generate reducing equivalents, such as NADH and NADPH. The resulting intracellular purple formazan can be solubilized and quantified by spectrophotometric means. The signals produced is directly proportional to the cell numbers. Describing the MTT assay in detail, experiments were done using 6-point or 9-point drug titrations in multi-well tissue culture dishes, with outer rows left empty. Cells were suspended in complete media at densities of between 10^3 and 10^4 cell/mL, respectively, and added per well. The appropriate medium (200 μL) was then added. Twenty-four hours later, 10 μL of MTS solution, were added to one plates to determine the activity at the time of compound addition (T0). […] The T0 plate served as a reference for initial activity at the beginning of the experiment.
(§3) Compound addition began 24 hours after seeding, the same time as the T0 determination. […] Each of the six dilutions were added in triplicate and complete medium was added to the empty outer rows without cells. […] The plates were incubated at 37° C. for 72 hours from seeding. The MTS solution was added (as for the T0 plate) and read four hours later. In order to analyze the data, the average value of media alone (background) was subtracted from each experimental well and the triplicate values were averaged for each compound dilution. The following formulas were used to calculate percent growth.
(§4) If X>T0, % Growth=100×((X−T0)/(GC−T0))
(§5) If X<T0, % Growth=100×(X−T0)/T0)
(§6) T0=average value of T0 minus background GC=average value of untreated cells (in triplicate) minus background X=average value of compound treated cells (in triplicate) minus background […]

[2] = tested on: HuT102 CTCL cell line; test: Monolayer growth inhibition assay (MTT/MTS), HuT102; format: cell-based, human
Method: (§7) Cell lines derived from human CTCL (mycosis fungoides), HUT78, HUT102, HH and MJ were treated with Compound III (LBH589) to assess their sensitivity to the drug. Cells were generally maintained in artificial media, such as Dubelco Modified Eagle Medium (DMEM) or RPMI and supplemented with various levels up to 15% fetal bovine serum. The antibiotics penicillin 100 units/mL) and streptomycin (100 μg/mL) were added to prevent bacterial contamination and maintained at 37° C. and 5% CO2 environment in a sterile incubator.
(§8) The MTT is a colorimetric assay to determine the cell proliferation rate. The yellow tetrazolium MTT (3-(4,5-dimethylthiazolyl-2)-2,5-diphenyltetrazolium bromide) is reduced by metabolically active cells, in part by the action of dehydrogenase enzymes, to generate reducing equivalents, such as NADH and NADPH. The resulting intracellular purple formazan can be solubilized and quantified by spectrophotometric means. The signals produced is directly proportional to the cell numbers. Describing the MTT assay in detail, experiments were done using 6-point or 9-point drug titrations in multi-well tissue culture dishes, with outer rows left empty. Cells were suspended in complete media at densities of between 10^3 and 10^4 cell/mL, respectively, and added per well. The appropriate medium (200 μL) was then added. Twenty-four hours later, 10 μL of MTS solution, were added to one plates to determine the activity at the time of compound addition (T0). This plate was incubated at 37° C. for 4 hours and the optical density was measured on a Molecular Devices Thermomax at 490 nm using the Softmax program. The T0 plate served as a reference for initial activity at the beginning of the experiment.
(§9) Compound addition began 24 hours after seeding, the same time as the T0 determination. […] Each of the six dilutions were added in triplicate and complete medium was added to the empty outer rows without cells. The compounds were added to the plates singly or in combination with Compound III (LBH589). The plates were incubated at 37° C. for 72 hours from seeding. The MTS solution was added (as for the T0 plate) and read four hours later. In order to analyze the data, the average value of media alone (background) was subtracted from each experimental well and the triplicate values were averaged for each compound dilution. The following formulas were used to calculate percent growth.
as §4, §5, §6

[3] = tested on: HH CTCL mouse tumor xenografts; test: HH CTCL tumor xenograft in mice; format: in vivo; conditions: 2 weeks
Method: Additionally, Compound III (LBH589) induced the regression of the HH CTCL mouse tumor xenografts in vivo. Mice were implanted with the HH CTCL cell lines and after tumors have grown to 150 mm^3, the mice were separated into four groups each containing eight mice. The groups of mice were dosed intravenously with vehicle, 5 mg/kg, 10 mg/kg, or 15 mg/kg daily.

[4] = tested on: HH CTCL cell line; test: Monolayer growth inhibition assay (MTT/MTS), HH; format: cell-based
Method: as §1, §2, §3, §4, §5, §6

[5] = tested on: MJ CTCL cell line; test: Monolayer growth inhibition assay (MTT/MTS), MJ; format: cell-based, human
Method: as §7, §8, §9, §4, §5, §6

[6] = tested on: advanced-stage CTCL; test: Phase I study in patients with advanced-stage CTCL; format: in vivo, human
Method: Adult patients with histologically-confirmed, advanced solid tumors or non-Hodgkin's lymphoma including CTCL whose disease has progressed despite standard therapy or for whom no standard therapy exists, will be enrolled onto arms 1-3.
Patients with advanced-stage CTCL were entered into a Phase I study. All patients had progressed following prior systemic therapy. Patients were entered into the DLT, […], dose level 30 mg M,W,F cohort (n=1) or the subsequent MTD, maximum tolerated dose, dose level 20 mg M,W,F weekly (n=8). Compound (III) was continued until disease progression or unacceptable toxicity. The first three patients had 3 mm punch biopsies from CTCL-involved skin lesions performed at 0, 4, 8 and 24 hours after administration, which were subjected to gene expression profiling. Microarray analysis was performed using the Affymetrix U133 plus 2.0 GeneChip that has 47,000 probesets and interrogates 38,500 genes.

[7] = of 9 CTCL patients evaluable for response, 20 or 30 mg M,W,F

Cc1[nH]c2ccccc2c1CCNCc1ccc(/C=C/C(=O)NO)cc1 [Compound III, N-hydroxy-3-[4-[[[2-(2-methyl-1H-indol-3-yl)-ethyl]-amino]methyl]phenyl]-2E-2-propenamide]
sensitivity (IC50) in words ([1]; HUT78 cells): extreme subnanomolar sensitivity
IC50 ([1]; Homo sapiens, HuT78, 72 h, read-out: IC50 (concentration required to inhibit cell growth by 50%)): 0.2 nM
LD50 (concentration required to reduce cell number to 50% of the original inoculum) ([1]; HuT78 cells, 72 hours): 0.003 µM
sensitivity (IC50) in words ([2]; HUT102 cells): extreme subnanomolar sensitivity
sensitivity to induced cell death in words ([2]; HUT102 cells, HTLV infection): insensitive
IC50 ([2]; Homo sapiens, HuT-102, 72 h, read-out: IC50 (concentration required to inhibit cell growth by 50%)): 0.4 nM
LD50 (concentration required to reduce cell number to 50% of the original inoculum) ([2]; HuT102 cells, 72 hours): >10 µM
effect on tumor growth ([3]; 5 mg/kg daily iv): tumor growth inhibition
effect on tumor growth ([3]; 10 mg/kg daily iv): almost complete tumor regression
effect on tumor growth ([3]; 15 mg/kg daily iv): almost complete tumor regression
sensitivity (IC50) in words ([4]; HH cells): extreme subnanomolar sensitivity
LD50 (concentration required to reduce cell number to 50% of the original inoculum) ([4]; HH cells, 72 hours): 0.0025 µM
IC50 ([4]; Homo sapiens, HH, 72 h, read-out: IC50 (concentration required to inhibit cell growth by 50%)): 0.7 nM
IC50 ([5]; Homo sapiens, 72 h, read-out: IC50 (concentration required to inhibit cell growth by 50%)): 0.3 nM
sensitivity (IC50) in words ([5]; MJ cells): extreme subnanomolar sensitivity
LD50 (concentration required to reduce cell number to 50% of the original inoculum) ([5]; MJ cells, 72 hours): >10 µM
sensitivity to induced cell death in words ([5]; MJ cells, HTLV infection): insensitive
MTD, maximum tolerated dose, dose level ([6]; M,W,F weekly, CTCL patients): 20 mg
time to progression of a responding patient with CR ([6]; discontinued after 10 doses due to Grade III diarrhea): 8 m
DLT dose level ([6]; human, in vivo): 30 mg
patients achieving stable disease (SD) with ongoing improvement [6, 7]: 1 patients
patients attaining a complete response (CR) [6, 7]: 2 patients
patients attaining a partial response (PR) [6, 7]: 2 patients
patients progressed on treatment (PD) [6, 7]: 4 patients
